Assay results: patent publication US8188271B2, “Polycyclic carbamoylpyridone derivative having HIV integrase inhibitory activity” (Shionogi & Co., Ltd., priority 2005, dated 2012)

Biological target: HIV integrase (Human immunodeficiency virus type 1 group M subtype B, UniProt P04585)
Experiment: HIV integrase inhibitory activity assay (strand transfer, immunoplate, OD405)
Assay type: biochemical
Settings: HIV integrase inhibition rate, absorbance OD405 nm
Description: The HIV integrase inhibitory activity was investigated based on the following assay method.
(1) Preparation of DNA Solution
By the same method as that described in Experimental Example 1 of WO 2004/024693, a substrate DNA solution (2 μmol/μl) and a target DNA solution (5 μmol/μl) were prepared. […] Each sequence of a substrate DNA and a target DNA is as described in the same Experimental Example.
(2) Measurement of Inhibition Rate (IC50 Value)
Streptavidin (manufactured by Vector Laboratories) was dissolved in a 0.1 M carbonate buffer solution (composition: 90 mM Na2CO3, 10 mM NaHCO3) to a concentration of 40 μg/ml. Each 50 μl of this solution was added to a well of an immunoplate (manufactured by NUNC), and this is allowed to stand at 4° C. overnight to adsorb. Then, each well was washed with a phosphate buffer (composition: 13.7 mM NaCl, 0.27 mM KCl, 0.43 mM Na2HPO4, 0.14 mM KH2PO4) two times, and 300 μl of a phosphate buffer containing 1% skim milk was added to block it for 30 minutes. Further, each well was washed with a phosphate buffer two times, […] of a substrate DNA solution (2 μmol/μl) was added to adsorb at room temperature for 30 minutes while shaking, and this was washed with a phosphate buffer two times and, then, distilled water once.
Then, to each well prepared as described above were added 12 μl of a buffer (composition: 150 mM MOPS (pH7.2), 75 mM MnCl2, 50 mM 2-mercaptoethanol, 25% glycerol, 500 μg/ml bovine serum albumin-fraction V), and 51 μl of a reaction solution prepared from […] of distilled water. Then, 9 μl of an integrase solution (30 μmol) was added, and the mixture was mixed well. To a well as a negative control (NC) was added 9 μl of a diluting solution (composition: 20 mM MOPS (pH7.2), 400 mM potassium glutamete, 1 mM EDTA, 0.1% NP-40, 20% glycerol, 1 mM DTT, 4 M urea), and this was mixed well using a plate mixer.
After the plate was incubated at 30° C. for 60 minutes, the reaction solution was discarded, followed by washing with 250 μl of a washing buffer (composition: 150 mM MOPS (pH7.2), 50 mM 2-mercaptoethanol, 25% glycerol, 500 μg/ml bovine serum albumin-fraction V) three times.
Then, to each well were added 12 μl of a buffer (composition: 150 mM MOPS (pH7.2), 75 mM MgCl2, 50 mM 2-mercaptoethanol, 25% glycerol, 500 μg/ml bovine serum albumin-fraction V), and 53 μl of a reaction solution prepared from 41 μl of distilled water. Further, 6 μl of a solution of a test compound in DMSO was added to each well, and 6 μl of DMSO was added to a well as a positive control (PC), followed by mixing well using a plate mixer. […]
C abs.; absorbance of well of compound
NC abs.: absorbance of NC
PC abs.: absorbance of PC

Row | SMILES | IC50 [nM]
1 | CN1CN(C[C@@H]2CCCO2)C(=O)c2c(O)c(=O)c(C(=O)NCc3ccc(F)cc3F)cn21 [Example N-15, 5-Hydroxy-1-methyl-4,6-dioxo-3-[(S)-1-(tetrahydro-furan-2-yl)methyl]-2,3,4,6-tetrahydro-1H-pyrid[2,1-f][1,2,4]triazine-7-carboxylic acid 2,4-difluoro-benzylamide] | 3.3
2 | CN1CN(C[C@H]2CCCO2)C(=O)c2c(O)c(=O)c(C(=O)NCc3ccc(F)cc3F)cn21 [Example N-16, 5-Hydroxy-1-methyl-4,6-dioxo-3-[(R)-1-(tetrahydro-furan-2-yl)methyl]-2,3,4,6-tetrahydro-1H-pyrid[2,1-f][1,2,4]triazine-7-carboxylic acid 2,4-difluoro-benzylamide] | 2.6
3 | O=C(NCc1ccc(F)cc1F)c1cn2c(c(O)c1=O)C(=O)N(CCN1CCOCC1)CN2 [Example O-07, 5-Hydroxy-3-(2-morpholin-4-yl-ethyl)-4,6-dioxo-2,3,4,6-tetrahydro-1H-pyrid[2,1-f][1,2,4]triazine-7-carboxylic acid 2,4-difluoro-benzylamide] | 4.8
4 | O=C(NCc1ccc(F)cc1F)c1cn2c(c(O)c1=O)C(=O)N(C[C@@H]1CCCO1)CN2 [Example O-06, 5-Hydroxy-4,6-dioxo-3-[(S)-1-(tetrahydro-furan-2-yl)methyl]-2,3,4,6-tetrahydro-1H-pyrid[2,1-f][1,2,4]triazine-7-carboxylic acid 2,4-difluoro-benzylamide] | 3.8
